Results: ChEMBL document CHEMBL4680149, “Biological evaluation and chemoproteomics reveal potential antibacterial targets of a cajaninstilbene-acid analogue” (Eur J Med Chem, 2020)
In brackets after ≈: the same amount, converted by molar mass. Activity calls are given as the source filed them. The calls are words filed in the database; no cut-off is given here.

Key:
Staphylococcus aureus [1] = test: Antibacterial activity against methicillin resistant Staphylococcus aureus ATCC 43300 persisters assessed as reduction in colony formation at 4 ug/ml incubated for 8 hrs by colony counting method; type: functional, organism-based; settings: dose 4.0 µg/ml
Staphylococcus aureus [2] = test: Binding affinity to modA in methicillin resistant Staphylococcus aureus ATCC 43300 assessed as protein labeling at 5 uM incubated for 1 hr followed by UV irradiation for 20 mins by pull down based in-gel fluorescence scanning analysis; settings: time 80.0 min
Staphylococcus aureus [3] = test: Binding affinity to modA in Staphylococcus aureus ATCC 25923 assessed as protein labeling at 5 uM incubated for 1 hr followed by UV irradiation for 20 mins by pull down based in-gel fluorescence scanning analysis; settings: time 80.0 min
Staphylococcus aureus [4] = test: Binding affinity to YidC in methicillin resistant Staphylococcus aureus ATCC 43300 assessed as protein labeling at 5 uM incubated for 1 hr followed by UV irradiation for 20 mins by pull down based in-gel fluorescence scanning analysis; settings: time 80.0 min
Staphylococcus aureus [5] = test: Binding affinity to moaB in Staphylococcus aureus ATCC 25923 assessed as protein labeling at 5 uM incubated for 1 hr followed by UV irradiation for 20 mins by pull down based in-gel fluorescence scanning analysis; settings: time 80.0 min
Staphylococcus aureus [6] = test: Binding affinity to HsIU/ClpY in methicillin resistant Staphylococcus aureus ATCC 43300 assessed as protein labeling at 5 uM incubated for 1 hr followed by UV irradiation for 20 mins by pull down based in-gel fluorescence scanning analysis; settings: time 80.0 min
Staphylococcus aureus [7] = test: Binding affinity to YidC in Staphylococcus aureus ATCC 25923 assessed as protein labeling at 5 uM incubated for 1 hr followed by UV irradiation for 20 mins by pull down based in-gel fluorescence scanning analysis; settings: time 80.0 min
Staphylococcus aureus [8] = test: Binding affinity to moaB in methicillin resistant Staphylococcus aureus ATCC 43300 assessed as protein labeling at 5 uM incubated for 1 hr followed by UV irradiation for 20 mins by pull down based in-gel fluorescence scanning analysis; settings: time 80.0 min
Staphylococcus aureus [9] = test: (§1) Binding affinity to CshA in methicillin resistant Staphylococcus aureus ATCC 43300 assessed as protein labeling at 5 uM incubated for 1 hr followed by UV irradiation for 20 mins by pull down based in-gel fluorescence scanning analysis; settings: time 80.0 min
Staphylococcus aureus [10] = test: Binding affinity to PgsA in methicillin resistant Staphylococcus aureus ATCC 43300 assessed as protein labeling at 5 uM incubated for 1 hr followed by UV irradiation for 20 mins by pull down based in-gel fluorescence scanning analysis; settings: time 80.0 min
Staphylococcus aureus [11] = test: Binding affinity to CshA in Staphylococcus aureus ATCC 25923 assessed as protein labeling at 5 uM incubated for 1 hr followed by UV irradiation for 20 mins by pull down based in-gel fluorescence scanning analysis; settings: time 80.0 min
Staphylococcus aureus [12] = test: Binding affinity to rpsH in methicillin resistant Staphylococcus aureus ATCC 43300 assessed as protein labeling at 5 uM incubated for 1 hr followed by UV irradiation for 20 mins by pull down based in-gel fluorescence scanning analysis; settings: time 80.0 min
Staphylococcus aureus [13] = test: Binding affinity to rpsH in Staphylococcus aureus ATCC 25923 assessed as protein labeling at 5 uM incubated for 1 hr followed by UV irradiation for 20 mins by pull down based in-gel fluorescence scanning analysis; settings: time 80.0 min
Staphylococcus aureus [14] = test: (§2) Binding affinity to HsIU/ClpY in Staphylococcus aureus ATCC 25923 assessed as protein labeling at 5 uM incubated for 1 hr followed by UV irradiation for 20 mins by pull down based in-gel fluorescence scanning analysis; settings: time 80.0 min
Staphylococcus aureus [15] = test: Binding affinity to PgsA in Staphylococcus aureus ATCC 25923 assessed as protein labeling at 5 uM incubated for 1 hr followed by UV irradiation for 20 mins by pull down based in-gel fluorescence scanning analysis; settings: time 80.0 min
Staphylococcus aureus [16] = test: Bacteriostatic activity against Staphylococcus aureus ATCC 25923 assessed as reduction in bacterial growth at 128 ug/ml incubated for 16 hrs by Kirby-Bauer test method; type: functional, organism-based; settings: dose 128.0 µg/ml
Staphylococcus aureus [17] = test: Antibacterial activity against methicillin resistant Staphylococcus aureus ATCC 43300 persisters assessed as eradication of colony formation at 2X MIC incubated for 4 hrs by colony counting method; type: functional, organism-based
RAW264.7 = test: Cytotoxicity against mouse RAW264.7 cells assessed as reduction in cell viability incubated for 48 hrs by MTT assay; type: cell-based; settings: RAW264.7, 48 h
Staphylococcus aureus [18] = test: Antibacterial activity against methicillin resistant Staphylococcus aureus ATCC 43300 persisters assessed as reduction in colony formation at 40 ug/ml incubated for 8 hrs in presence of 50 ug/ml Ca2+ by colony counting method; type: functional, organism-based; settings: dose 40.0 µg/ml
Staphylococcus aureus [19] = test: as §2, with “hr in presence of (E)-6-(2-fluorostyryl)-2,4-dihydroxy-3-(3-methylbut-2-enyl)benzoic acid” for “hr”; settings: time 80.0 min
Staphylococcus aureus [20] = test: Antibacterial activity against Staphylococcus aureus ATCC 25923 assessed as reduction in bacterial growth incubated for 16 hrs by broth microdilution method; type: functional
Staphylococcus aureus [21] = test: as §1, with “hr in presence of (E)-6-(2-fluorostyryl)-2,4-dihydroxy-3-(3-methylbut-2-enyl)benzoic acid” for “hr”; settings: time 80.0 min
Staphylococcus aureus [22] = test: Binding affinity to His-tagged recombinant Staphylococcus aureus PgsA expressed in Escherichia coli Rosetta DE3 at 5 uM incubated for 1 hr in presence of (E)-6-(2-fluorostyryl)-2,4-dihydroxy-3-(3-methylbut-2-enyl)benzoic acid followed by UV irradiation for 20 mins by in-gel fluorescence scanning analysis; settings: time 80.0 min
Staphylococcus aureus [23] = test: Bacteriostatic activity against Staphylococcus aureus ATCC 25923 assessed as reduction in bacterial growth at 4 ug/ml incubated for 16 hrs by Kirby-Bauer test method; type: functional, organism-based; settings: dose 4.0 µg/ml
Staphylococcus aureus [24] = test: Binding affinity to rpsH in Staphylococcus aureus ATCC 25923 assessed as protein labeling at 5 uM incubated for 1 hr in presence of (E)-6-(2-fluorostyryl)-2,4-dihydroxy-3-(3-methylbut-2-enyl)benzoic acid followed by UV irradiation for 20 mins by pull down based in-gel fluorescence scanning analysis; settings: time 80.0 min
Staphylococcus aureus [25] = test: Binding affinity to PgsA in Staphylococcus aureus ATCC 25923 assessed as protein labeling at 5 uM incubated for 1 hr in presence of (E)-6-(2-fluorostyryl)-2,4-dihydroxy-3-(3-methylbut-2-enyl)benzoic acid followed by UV irradiation for 20 mins by pull down based in-gel fluorescence scanning analysis; settings: time 80.0 min
Staphylococcus aureus [26] = test: Binding affinity to modA in Staphylococcus aureus ATCC 25923 assessed as protein labeling at 5 uM incubated for 1 hr in presence of (E)-6-(2-fluorostyryl)-2,4-dihydroxy-3-(3-methylbut-2-enyl)benzoic acid followed by UV irradiation for 20 mins by pull down based in-gel fluorescence scanning analysis; settings: time 80.0 min
Staphylococcus aureus [27] = test: (§3) Binding affinity to modA in methicillin resistant Staphylococcus aureus ATCC 43300 assessed as protein labeling at 5 uM incubated for 1 hr in presence of (E)-6-(2-fluorostyryl)-2,4-dihydroxy-3-(3-methylbut-2-enyl)benzoic acid followed by UV irradiation for 20 mins by pull down based in-gel fluorescence scanning analysis; settings: time 80.0 min
Staphylococcus aureus [28] = test: Binding affinity to moaB in Staphylococcus aureus ATCC 25923 assessed as protein labeling at 5 uM incubated for 1 hr in presence of (E)-6-(2-fluorostyryl)-2,4-dihydroxy-3-(3-methylbut-2-enyl)benzoic acid followed by UV irradiation for 20 mins by pull down based in-gel fluorescence scanning analysis; settings: time 80.0 min
Staphylococcus aureus [29] = test: as §3, with “YidC” for “modA”; settings: time 80.0 min
Staphylococcus aureus [30] = test: Binding affinity to YidC in Staphylococcus aureus ATCC 25923 assessed as protein labeling at 5 uM incubated for 1 hr in presence of (E)-6-(2-fluorostyryl)-2,4-dihydroxy-3-(3-methylbut-2-enyl)benzoic acid followed by UV irradiation for 20 mins by pull down based in-gel fluorescence scanning analysis; settings: time 80.0 min
Staphylococcus aureus [31] = test: as §3, with “PgsA” for “modA”; settings: time 80.0 min
Staphylococcus aureus [32] = test: as §3, with “moaB” for “modA”; settings: time 80.0 min
Staphylococcus aureus [33] = test: as §3, with “rpsH” for “modA”; settings: time 80.0 min
Staphylococcus aureus [34] = test: as §3, with “HsIU/ClpY” for “modA”; settings: time 80.0 min
Staphylococcus aureus [35] = test: Binding affinity to CshA in Staphylococcus aureus ATCC 25923 assessed as protein labeling at 5 uM incubated for 1 hr in presence of (E)-6-(2-fluorostyryl)-2,4-dihydroxy-3-(3-methylbut-2-enyl)benzoic acid followed by UV irradiation for 20 mins by pull down based in-gel fluorescence scanning analysis; settings: time 80.0 min
Staphylococcus aureus [36] = test: Resistance index, ratio of MIC for antibacterial activity against Staphylococcus aureus ATCC 25923 measured after 60 days of serial passage to MIC for antibacterial activity against Staphylococcus aureus ATCC25923 measured after 16 hrs; type: functional
Staphylococcus aureus [37] = test: Antibacterial activity against methicillin resistant Staphylococcus aureus ATCC 43300 persisters assessed as reduction in colony formation at 40 ug/ml incubated for 8 hrs by colony counting method; type: functional, organism-based; settings: dose 40.0 µg/ml

| SMILES | Activity (Staphylococcus aureus [2]) | Activity (Staphylococcus aureus [3]) | Activity (Staphylococcus aureus [4]) | Activity (Staphylococcus aureus [5]) | Activity (Staphylococcus aureus [6]) | Activity (Staphylococcus aureus [7]) | Activity (Staphylococcus aureus [8]) | Activity (Staphylococcus aureus [9]) | Activity (Staphylococcus aureus [10]) | Activity (Staphylococcus aureus [11]) | Activity (Staphylococcus aureus [12]) | Activity (Staphylococcus aureus [13]) | Activity (Staphylococcus aureus [14]) | Activity (Staphylococcus aureus [15]) | further results |
| --- | --- | --- | --- | --- | --- | --- | --- | --- | --- | --- | --- | --- | --- | --- | --- |
| CO[C@H]1/C=C/O[C@@]2(C)Oc3c(C)c(O)c4c(O)c(c(/C=N/N5CCN(C)CC5)c(O)c4c3C2=O)NC(=O)/C(C)=C\C=C\[C@H](C)[C@H](O)[C@@H](C)[C@@H](O)[C@@H](C)[C@H](OC(C)=O)[C@@H]1C | – | – | – | – | – | – | – | – | – | – | – | – | – | – | Activity (Staphylococcus aureus [1]): Active |
| C#CCCC1(CCOc2ccccc2)N=N1 | inactive | inactive | inactive | inactive | inactive | inactive | inactive | inactive | inactive | inactive | inactive | inactive | inactive | inactive | Activity (Staphylococcus aureus [16]): inactive |
| COc1cc(/C=C/c2ccc(C(F)(F)F)cc2)c(C(=O)O)c(O)c1CC=C(C)C | – | – | – | – | – | – | – | – | – | – | – | – | – | – | Activity (Staphylococcus aureus [17]): Active; IC50 (RAW264.7): 50.6 µM |
| CCCCCCCCCC(=O)N[C@@H](Cc1c[nH]c2ccccc12)C(=O)N[C@H](CC(N)=O)C(=O)N[C@@H](CC(=O)O)C(=O)N[C@@H]1C(=O)NCC(=O)N[C@@H](CCCN)C(=O)N[C@@H](CC(=O)O)C(=O)N[C@H](C)C(=O)N[C@@H](CC(=O)O)C(=O)NCC(=O)N[C@H](CO)C(=O)N[C@@H]([C@H](C)CC(=O)O)C(=O)N[C@@H](CC(=O)c2ccccc2N)C(=O)O[C@@H]1C | – | – | – | – | – | – | – | – | – | – | – | – | – | – | Activity (Staphylococcus aureus [18]): Active |
| C#CCCC1(CCOc2ccc(/C=C/c3cc(OC)c(CC=C(C)C)c(O)c3C(=O)O)c(F)c2)N=N1 | Active | Active | Active | Active | Active | Active | Active | Active | Active | Active | Active | Active | Active | Active | Activity (Staphylococcus aureus [19]): inactive; MIC (Staphylococcus aureus [20]): 8 µg/mL (≈ 16.2 µM); Activity (Staphylococcus aureus [21]): inactive; Activity (Staphylococcus aureus [22]): inactive; Activity (Staphylococcus aureus [23]): Active; Activity (Staphylococcus aureus [24]): inactive; Activity (Staphylococcus aureus [25]): inactive; Activity (Staphylococcus aureus [26]): inactive; Activity (Staphylococcus aureus [27]): inactive; Activity (Staphylococcus aureus [28]): inactive; Activity (Staphylococcus aureus [29]): inactive; Activity (Staphylococcus aureus [30]): inactive; Activity (Staphylococcus aureus [31]): inactive; Activity (Staphylococcus aureus [32]): inactive; Activity (Staphylococcus aureus [33]): inactive; Activity (Staphylococcus aureus [34]): inactive; Activity (Staphylococcus aureus [35]): inactive |
| O=C(O)c1cn(C2CC2)c2cc(N3CCNCC3)c(F)cc2c1=O [CIPROFLOXACIN] | – | – | – | – | – | – | – | – | – | – | – | – | – | – | Ratio (Staphylococcus aureus [36]): 50; Activity (Staphylococcus aureus [37]): Active |
